20 compounds from patent publication US20100029657A1, “Bridged, Bicyclic Heterocyclic or Spiro Bicyclic Heterocyclic Derivatives of Pyrazolo[1, 5-A]Pyrimidines, Methods for Preparation and Uses Thereof” (Wyeth, priority 2008, published 2010) can be followed below.

The target of this assay is T1, Flag/GST-tagged recombinant human B-Raf (Homo sapiens, UniProt P15056).
T1 construct: Flag; GST; made in house; host or cells: Sf9 insect cells (B-Raf); E. coli (MEK1-GST)
Kind of assay: B-Raf kinase assay (phosphorylation of GST-MEK1, phospho-MEK1 antibody/Europium detection). The format is biochemical. To be noted: B-Raf IC50 Data for compounds of Formula A; read-out: Mean IC50. The protocol:
B-Raf1 Kinase Assay Procedure: B-Raf-1 is used to phosphorylate GST-MEK1.
• 1. Assay Dilution Buffer (ADB): 20 mM MOPS, pH 7.2, 25 mM β-glycerol phosphate, 5 mM EGTA, 1 mM sodium orthovanadate, 1 mM dithiothreitol, 0.01% Triton X-100. • 2. Magnesium/ATP Cocktail: ADB solution (minus Triton X-100) plus 200 μM cold ATP and 40 mM magnesium chloride. • 4. Active Kinase: Active B-Raf: Used at 0.2 nM per assay point. • 5. […] TBST—Tris (50 mM, pH 7.5), NaCl (150 mM), Tween-20 (0.05%) • 7. Anti-GST Ab (GE) • 8. Anti pMEK Ab (Upstate) • 9. Anti-rabbit Ab/Europium conjugate (Wallac).
B-Raf Assay Procedure: • 1. Added 25 μL of ADB containing B-Raf and Mek per assay (i.e. per well of a 96 well plate) • 2. Added 25 μL of 0.2 mM ATP and 40 mM magnesium chloride in Magnesuium/ATP Cocktail. • 3. Incubated for 45 minutes at RT with occasional shaking. • 4. Transferred this mixture to an anti-GST Ab coated 96 well plate (Nunc Immunosorb plates coated o/n with a-GST. Plate freshly washed 3×with TBS-T before use. • 5. Incubated o/n at […] in cold room. • 6. Washed 3× with TBST, ed Anti-Phospho MEK1 (1:1000, dilution depended upon lot) • 7. Incubated for 60 minutes at RT in a shaking incubator • 8. Washed 3× with TBST, add Anti-rabbit Ab/Europium conjugate (Wallac) (1:500, dilution depended upon lot) • 9. Incubated for 60 minutes at RT on a platform shaker. • 10. Washed plate 3× with TBS-T • 11. Added 100 μL of Wallac Delfia Enhancement Solution and agitated for 10 minutes. • 12. Read plates in Wallac Victor model Plate Reader. • 13.
The % inhibition was determined for each compound concentration.

T1 sequence (P15056 whole entry): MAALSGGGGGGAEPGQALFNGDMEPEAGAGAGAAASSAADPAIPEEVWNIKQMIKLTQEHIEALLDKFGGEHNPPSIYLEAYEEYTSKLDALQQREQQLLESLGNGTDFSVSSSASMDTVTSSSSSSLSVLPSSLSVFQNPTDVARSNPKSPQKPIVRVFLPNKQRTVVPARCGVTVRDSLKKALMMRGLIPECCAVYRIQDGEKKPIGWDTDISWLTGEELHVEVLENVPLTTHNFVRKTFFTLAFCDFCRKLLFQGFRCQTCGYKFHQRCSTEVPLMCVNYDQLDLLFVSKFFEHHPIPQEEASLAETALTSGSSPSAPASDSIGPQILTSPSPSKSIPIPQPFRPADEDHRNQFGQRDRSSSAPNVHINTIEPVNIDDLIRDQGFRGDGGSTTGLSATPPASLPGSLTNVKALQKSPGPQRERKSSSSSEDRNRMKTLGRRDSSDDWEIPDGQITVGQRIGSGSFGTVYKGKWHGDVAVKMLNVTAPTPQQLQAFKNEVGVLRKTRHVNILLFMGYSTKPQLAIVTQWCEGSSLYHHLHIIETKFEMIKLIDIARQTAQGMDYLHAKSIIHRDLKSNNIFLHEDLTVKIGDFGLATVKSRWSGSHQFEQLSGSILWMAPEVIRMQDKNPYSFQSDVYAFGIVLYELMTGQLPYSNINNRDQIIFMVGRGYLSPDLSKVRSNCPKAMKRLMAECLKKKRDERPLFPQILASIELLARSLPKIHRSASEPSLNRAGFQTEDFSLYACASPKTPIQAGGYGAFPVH

Broadly, the IC50 is the concentration at which inhibition is half-maximal. For `CN1C[C@@H]2C[C@H]1CN2c1ccc(-c2ccnc3c(-c4ccc(F)c5[nH]ncc45)c(-c4ccncc4)nn23)cn1` [Example 42, 3-(7-Fluoro-1H-indazol-4-yl)-7-(6-((1S,4S)-5-methyl-2,5-diazabicyclo[2.2.1]heptan-2-yl)pyridin-3-yl)-2-(pyridin-4-yl)pyrazolo[1,5-a]pyrimidine], the IC50 turned out to be 0.4 nM.

For `CN1C[C@@H]2C[C@H]1CN2c1ccc(-c2ccnc3c(-c4cccc(C(N)=O)c4)c(-c4ccncc4)nn23)cn1` [Example 43, 3-(7-(6-((1S,4S)-5-Methyl-2,5-diazabicyclo[2.2.1]heptan-2-yl)pyridin-3-yl)-2-(pyridin-4-yl)pyrazolo[1,5-a]pyrimidin-3-yl)benzamide], the IC50 is 134 nM.

Take `Cc1cc(N2C[C@@H]3C[C@H]2CN3)ccc1-c1ccnc2c(-c3cccc4[nH]ncc34)c(-c3ccncc3)nn12` [Example 44, 7-(4-((1S,4S)-2,5-Diazabicyclo[2.2.1]heptan-2-yl)-2-methylphenyl)-3-(1H-indazol-4-yl)-2-(pyridin-4-yl)pyrazolo[1,5-a]pyrimidine]: the IC50 was determined as 0.6 nM.

As to `Cc1cc(N2C[C@@H]3C[C@H]2CN3C)ccc1-c1ccnc2c(-c3cccc4[nH]ncc34)c(-c3ccncc3)nn12` [Example 45, 3-(1H-Indazol-4-yl)-7-(2-methyl-4-((1S,4S)-5-methyl-2,5-diazabicyclo[2.2.1]heptan-2-yl)phenyl)-2-(pyridin-4-yl)pyrazolo[1,5-a]pyrimidine], the IC50 is below 0.3 nM.

For the compound `Fc1ccc(-c2ccnc3c(-c4cccc5[nH]ncc45)c(-c4ccncc4)nn23)c(N2C[C@@H]3C[C@H]2CN3)c1` [Example 46, 7-(2-((1S,4S)-2,5-Diazabicyclo[2.2.1]heptan-2-yl)-4-fluorophenyl)-3-(1H-indazol-4-yl)-2-(pyridin-4-yl)pyrazolo[1,5-a]pyrimidine], the IC50 was found to be 3.2 nM.

As to `CN1C[C@@H]2C[C@H]1CN2c1cc(F)ccc1-c1ccnc2c(-c3cccc4[nH]ncc34)c(-c3ccncc3)nn12` [Example 47, 7-(4-Fluoro-2-((1S,4S)-5-methyl-2,5-diazabicyclo[2.2.1]heptan-2-yl)phenyl)-3-(1H-indazol-4-yl)-2-(pyridin-4-yl)pyrazolo[1,5-a]pyrimidine], the half-maximal inhibitory concentration (IC50) turned out to be 0.8 nM.

Consider `COc1cc(-c2c(-c3ccncc3)nn3c(-c4ccc(F)cc4N4C[C@@H]5C[C@H]4CN5C(=O)OC(C)(C)C)ccnc23)ccc1Cl` [Example 48, (1S,4S)-tert-Butyl 5-(2-(3-(4-chloro-3-methoxyphenyl)-2-(pyridin-4-yl)pyrazolo[1,5-a]pyrimidin-7-yl)-5-fluorophenyl)-2,5-diazabicyclo[2.2.1]-heptane-2-carboxylate], for which the half-inhibitory concentration (IC50) was above 1000 nM.

For `COc1cc(-c2c(-c3ccncc3)nn3c(-c4ccc(F)cc4N4C[C@@H]5C[C@H]4CN5)ccnc23)ccc1Cl` [Example 49, 7-(2-((1S,4S)-2,5-Diazabicyclo[2.2.1]heptan-2-yl)-4-fluorophenyl)-3-(4-chloro-3-methoxyphenyl)-2-(pyridin-4-yl)pyrazolo[1,5-a]pyrimidine], the concentration for half-maximal inhibition (IC50) was determined as 255 nM.

In the case of `COc1cc(-c2c(-c3ccncc3)nn3c(-c4ccc(F)cc4N4C[C@@H]5C[C@H]4CN5C)ccnc23)ccc1Cl` [Example 50, 3-(4-Chloro-3-methoxyphenyl)-7-(4-fluoro-2-((1S,4S)-5-methyl-2,5-diazabicyclo[2.2.1]heptan-2-yl)phenyl)-2-(pyridin-4-yl)pyrazolo[1,5-a]pyrimidine], the IC50 was above 1000 nM.

Take `c1cc(-c2c(-c3ccncc3)nn3c(-c4ccc(N5C[C@@H]6C[C@H]5CN6)cc4)ccnc23)c2cn[nH]c2c1` [Example 51, 7-(4-((1S,4S)-2,5-Diazabicyclo[2.2.1]heptan-2-yl)phenyl)-3-(1H-indazol-4-yl)-(pyridin-4-yl)pyrazolo[1,5-a]pyrimidine]: the IC50 was 0.8 nM.

In the case of `Fc1cc(N2C[C@@H]3C[C@H]2CN3)ccc1-c1ccnc2c(-c3cccc4[nH]ncc34)c(-c3ccncc3)nn12` [Example 52, 7-(4-((1S,4S)-2,5-Diazabicyclo[2.2.1]heptan-2-yl)-2-fluorophenyl)-3-(1H-indazol-4-yl)-2-(pyridin-4-yl)pyrazolo[1,5-a]pyrimidine], the half-maximal inhibitory concentration (IC50) is below 0.3 nM.

As for `CN1C[C@@H]2C[C@H]1CN2c1ccc(-c2ccnc3c(-c4cccc5[nH]ncc45)c(-c4ccncc4)nn23)c(F)c1` [Example 53, 7-(2-Fluoro-4-((1S,4S)-5-methyl-2,5-diazabicyclo[2.2.1]heptan-2-yl)phenyl)-3-(1H-indazol-4-yl)-2-(pyridin-4-yl)pyrazolo[1,5-a]pyrimidine], the half-maximal inhibitory concentration (IC50) was below 0.3 nM.

Regarding `CN1C[C@@H]2C[C@H]1CN2c1ccc(-c2ccnc3c(-c4ccc(F)c(O)c4)c(-c4ccncc4)nn23)cc1` [Example 54, 2-fluoro-5-(7-(4-((1S,4S)-5-methyl-2,5-diazabicyclo[2.2.1]heptan-2-yl)phenyl)-2-(pyridin-4-yl)pyrazolo[1,5-a]pyrimidin-3-yl)phenol], the IC50 was determined as 150 nM.

Consider `Cc1cc(N2C[C@@H]3C[C@H]2CN3C)ccc1-c1ccnc2c(-c3ccc(F)c(O)c3)c(-c3ccncc3)nn12` [Example 56, 2-Fluoro-5-(7-(2-methyl-4-((1S,4S)-5-methyl-2,5-diazabicyclo[2.2.1]heptan-2-yl)phenyl)-2-(pyridin-4-yl)pyrazolo[1,5-a]pyrimidin-3-yl)phenol], for which the half-maximal inhibitory concentration (IC50) was below 0.3 nM.

On to `Cc1cc(N2C[C@@H]3C[C@H]2CN3C)ccc1-c1ccnc2c(-c3cccc(O)c3)c(-c3ccncc3)nn12` [Example 58, 3-(7-(2-Methyl-4-((1S,4S)-5-methyl-2,5-diazabicyclo[2.2.1]heptan-2-yl)phenyl)-2-(pyridin-4-yl)pyrazolo[1,5-a]pyrimidin-3-yl)phenol], for which the half-maximal inhibitory concentration (IC50) was below 0.3 nM.

Turning to `Oc1cccc(-c2c(-c3ccncc3)nn3c(-c4ccc(N5C[C@@H]6C[C@H]5CN6)cc4Cl)ccnc23)c1` [Example 59, 3-(7-(4-((1S,4S)-2,5-Diazabicyclo[2.2.1]heptan-2-yl)-2-chlorophenyl)-2-(pyridin-4-yl)pyrazolo[1,5-a]pyrimidin-3-yl)phenol], the IC50 was below 0.3 nM.

Consider `CN1C[C@@H]2C[C@H]1CN2c1ccc(-c2ccnc3c(-c4cccc(O)c4)c(-c4ccncc4)nn23)c(Cl)c1` [Example 60, 3-(7-(2-Chloro-4-((1S,4S)-5-methyl-2,5-diazabicyclo[2.2.1]heptan-2-yl)phenyl)-2-(pyridin-4-yl)pyrazolo[1,5-a]pyrimidin-3-yl)phenol], for which the IC50 is below 0.3 nM.

`Clc1cc(N2C[C@@H]3C[C@H]2CN3)ccc1-c1ccnc2c(-c3cccc4[nH]ncc34)c(-c3ccncc3)nn12` [Example 61, 7-(4-((1S,4S)-2,5-Diazabicyclo[2.2.1]heptan-2-yl)-2-chlorophenyl)-3-(1H-indazol-4-yl)-2-(pyridin-4-yl)pyrazolo[1,5-a]pyrimidine]: the half-inhibitory concentration (IC50) is below 0.3 nM.

Take `CN1C[C@@H]2C[C@H]1CN2c1ccc(-c2ccnc3c(-c4cccc5[nH]ncc45)c(-c4ccncc4)nn23)c(Cl)c1` [Example 62, 7-(2-Chloro-4-((1S,4S)-5-methyl-2,5-diazabicyclo[2.2.1]heptan-2-yl)phenyl)-3-(1H-indazol-4-yl)-2-(pyridin-4-yl)pyrazolo[1,5-a]pyrimidine]: the IC50 was below 0.3 nM.

On to `CCN1C2CCC1CC(c1ccnc3c(-c4ccc(F)c(O)c4)c(-c4ccncc4)nn13)C2` (centres unmarked) [Example 64, 5-(7-(8-Ethyl-8-azabicyclo[3.2.1]octan-3-yl)-2-(pyridin-4-yl)pyrazolo[1,5-a]pyrimidin-3-yl)-2-fluorophenol], for which the IC50 amounted to 3 nM.
